Test results published in US7368471B2, “Substituted indole acid derivatives as inhibitors of plasminogen activator inhibitor-1 (PAI-1)” (Wyeth, priority 2001, dated 2008).

Assays:
[1] = biological target: T1, recombinant human plasminogen activator inhibitor-1 (PAI-1) (Homo sapiens, UniProt P05121); assay: Primary Screen for the PAI-1 Inhibition (residual tPA activity, Spectrozyme-tPA chromogenic substrate); format: biochemical; conditions: 25 μM test compound
T1 construct: purchased Molecular Innovations, Royal Oak, Mich
Description: Primary Screen for the PAI-1 Inhibition
Test compounds are dissolved in DMSO at a final concentration of 10 mM, then diluted 100× in physiologic buffer. The inhibitory assay is initiated by the addition of the test compound (1-100 μM final concentration, maximum DMSO concentration of 0.2%) in a pH 6.6 buffer containing 140 nM recombinant human plasminogen activator inhibitor-1 (PAI-1; Molecular Innovations, Royal Oak, Mich.). Following a 1 hour incubation at room temperature, 70 nM of recombinant human tissue plasminogen activator (tPA) is added, and the combination of the test compound, PAI-1 and tPA is incubated for an additional 30 minutes. Following the second incubation, Spectrozyme-tPA (American Diagnostica, Greenwich, Conn.), a chromogenic substrate for tPA, is added and absorbance read at 405 nm at 0 and 60 minutes. Relative PAI-1 inhibition is equal to the residual tPA activity in the presence of the test compound and PAI-1. Control treatments include the complete inhibition of tPA by PAI-1 at the molar ratio employed (2:1), and the absence of any effect of the test compound on tPA alone.

T1 sequence (P05121 24-402): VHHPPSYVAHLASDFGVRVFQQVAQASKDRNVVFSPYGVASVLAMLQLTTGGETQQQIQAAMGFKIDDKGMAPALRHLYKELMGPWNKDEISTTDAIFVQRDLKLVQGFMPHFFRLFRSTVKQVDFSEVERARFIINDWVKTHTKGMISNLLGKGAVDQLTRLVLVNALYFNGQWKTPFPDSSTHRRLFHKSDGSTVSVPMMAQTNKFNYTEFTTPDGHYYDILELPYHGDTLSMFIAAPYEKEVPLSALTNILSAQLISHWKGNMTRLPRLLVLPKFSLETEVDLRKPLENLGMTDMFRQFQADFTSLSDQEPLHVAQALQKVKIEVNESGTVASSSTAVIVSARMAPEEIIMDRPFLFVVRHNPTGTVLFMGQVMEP

Compound | inhibition at 25 µM [1] | melting point | % Inhibition @ 25 μM [1]
Cn1cc(C(=O)C(=O)O)c2ccc(-c3ccc(OC(F)(F)F)cc3)cc21 [Example 1, {1-Methyl-6-[4-(trifluoromethoxy)phenyl]-1H-indol-3-yl}(oxo)acetic acid] | 15% | 233 to 235 °C (dec.) | –
CCn1cc(C(=O)C(=O)O)c2ccc(-c3ccc(OC(F)(F)F)cc3)cc21 [Example 3, {1-Ethyl-6-[4-(trifluoromethoxy)phenyl]-1H-indol-3-yl}(oxo)acetic acid] | 24% | 204 to 205 °C | –
CCn1cc(C(=O)C(=O)O)c2ccc(-c3ccc(C(F)(F)F)cc3)cc21 [Example 4, {1-Ethyl-6-[4-(trifluoromethyl)phenyl]-1H-indol-3-yl}(oxo)acetic acid] | 16% | 247 to 248 °C | –
O=C(O)C(=O)c1cn(Cc2ccccc2)c2cc(-c3ccc(C(F)(F)F)cc3)ccc12 [Example 6, {1-Benzyl-6-[4-(trifluoromethyl)phenyl]-1H-indol-3-yl}(oxo)acetic acid] | 27% | 223 to 224 °C (dec.) | –
CC(C)(C)c1ccc(Cn2cc(C(=O)C(=O)O)c3ccc(-c4ccc(C(F)(F)F)cc4)cc32)cc1 [Example 7, {1-[4-(tert-Butyl)benzyl]-6-[4-(trifluoromethyl)phenyl]-1H-indol-3-yl}(oxo)acetic acid] | 26% | 205 to 206 °C (dec.) | –
O=C(O)C(=O)c1cn(Cc2ccccc2)c2ccc(-c3ccc(C(F)(F)F)cc3)cc12 [Example 9, {1-Benzyl-5-[4-(trifluoromethyl)phenyl]-1H-indol-3-yl}(oxo)acetic acid] | 40% | 201 to 202 °C (dec.) | –
Cn1cc(C(=O)C(=O)O)c2ccc(-c3ccc(C(C)(C)C)cc3)cc21 [Example 10, {6-[4-(tert-Butyl)phenyl]-1-methyl-1H-indol-3-yl}(oxo)acetic acid] | 33% | 201 to 202 °C (dec.) | –
CC(=O)c1ccc(-c2ccc3c(c2)c(C(=O)C(=O)O)cn3Cc2ccccc2)cc1 [Example 11, [5-(4-Acetylphenyl)-1-benzyl-1H-indol-3-yl](oxo)acetic acid] | 19% | 213 to 214 °C (dec.) | –
O=C(O)C(=O)c1cn(Cc2ccccc2)c2cccc(-c3ccc(C(F)(F)F)cc3)c12 [Example 13, {1-Benzyl-4-[4-(trifluoromethyl)phenyl]-1H-indol-3-yl}(oxo)acetic acid] | 27% | 183 to 184 °C | –
CC(C)(C)c1ccc(-c2ccc3c(c2)c(C(=O)C(=O)O)cn3Cc2ccccc2)cc1 [Example 14, {1-Benzyl-5-[4-(tert-butyl)phenyl]-1H-indol-3-yl}(oxo)acetic acid] | 55% | 210 to 211 °C (dec.) | –
O=C(O)C(=O)c1cn(Cc2ccccc2)c2cccc(-c3ccc(OC(F)(F)F)cc3)c12 [Example 20, {1-Benzyl-4-[4-(trifluoromethoxy)phenyl]-1H-indol-3-yl}(oxo)acetic acid] | 14% | – | –
O=C(O)C(=O)c1cn(Cc2ccccc2)c2cc(-c3ccccc3)ccc12 [Example 23, (1-Benzyl-6-phenyl-1H-indol-3-yl)(oxo)acetic acid] | 40% | – | –
O=C(O)C(=O)c1cn(Cc2ccccc2)c2ccc(-c3ccccc3)cc12 [Example 24, (1-Benzyl-5-phenyl-1H-indol-3-yl)(oxo)acetic acid] | 47% | 193 to 195 °C (dec.) | –
CCCCn1cc(C(=O)C(=O)O)c2cc(-c3cccc(OC)c3)ccc21 [Example 31, [1-Butyl-5-(3-methoxyphenyl)-1H-indol-3-yl](oxo)acetic acid] | 32% | 108 to 109 °C | –
CCCCn1cc(C(=O)C(=O)O)c2cc(-c3ccc(OC)cc3)ccc21 [Example 32, [1-Butyl-5-(4-methoxyphenyl)-1H-indol-3-yl](oxo)acetic acid] | 28% | 172 to 173 °C | –
CC(C)(C)c1ccc(Cn2cc(C(=O)C(=O)O)c3cc(-c4ccc(Cl)cc4)ccc32)cc1 [Example 38, [1-(4-tert-Butylbenzyl)-5-(4-chlorophenyl)-1H-indol-3-yl](oxo)acetic acid] | 14% | 183 to 184 °C | –
CC(=O)OCc1c(C(=O)C(=O)O)c2cc(-c3ccc(OC(F)(F)F)cc3)ccc2n1Cc1ccc(C)cc1 [Example 41, {2-[(Acetyloxy)methyl]-1-(4-methylbenzyl)-5-[4-(trifluoromethoxy)phenyl]-1H-indol-3-yl}(oxo)acetic acid] | 13% | 79 to 80 °C | –
O=C(O)C(=O)c1cn(C2CCCC2)c2ccc(-c3cccc(Cl)c3)cc12 [Example 45, [5-(3-Chlorophenyl)-1-cyclopentyl-1H-indol-3-yl]-oxo-acetic acid] | 45% | – | –

Compound | inhibition at 25 µM [1] | melting point | % Inhibition @ 25 μM [1]
O=C(O)C(=O)c1cn(CC2CCC2)c2ccc(-c3cccc(Cl)c3)cc12 [Example 46, [5-(3-chlorophenyl)-1-(cyclobutylmethyl)-1H-indol-3-yl](oxo)acetic acid] | 45% | – | –
O=C(O)C(=O)c1cn(C2CCCC2)c2ccc(-c3ccc(C(F)(F)F)cc3)cc12 [Example 49, [5-(4-trifluoromethylphenyl)-1-(cyclopentyl)-1H-indol-3-yl](oxo)acetic acid] | 54% | – | –
O=C(O)C(=O)c1cn(CC2CCC2)c2ccc(-c3ccc(C(F)(F)F)cc3)cc12 [Example 50, [5-(4-trifluoromethylphenyl)-1-(cyclobutylmethyl)-1H-indol-3-yl](oxo)acetic acid] | 59% | – | –
CC1CCC(n2cc(C(=O)C(=O)O)c3cc(-c4ccc(C(F)(F)F)cc4)ccc32)C1 (centres unmarked) [Example 51, [5-(4-trifluoromethylphenyl)-1-(3-methylcyclopentyl)-1H-indol-3-yl](oxo)acetic acid] | 58% | – | –
O=C(O)C(=O)c1cn(CC2CCCCC2)c2ccc(-c3ccc(C(F)(F)F)cc3)cc12 [Example 52, [5-(4-trifluoromethylphenyl)-1-(cyclohexylmethyl)-1H-indol-3-yl](oxo)acetic acid] | 59% | – | –
O=C(O)C(=O)c1cn(CCCC2CCCC2)c2ccc(-c3ccc(C(F)(F)F)cc3)cc12 [Example 53, [5-(4-trifluoromethylphenyl)-1-(cyclopentylpropyl)-1H-indol-3-yl](oxo)acetic acid] | 67% | – | –
O=C(O)C(=O)c1cn(C2CCCC2)c2ccc(-c3cccc(C(F)(F)F)c3)cc12 [Example 54, [5-(3-trifluoromethylphenyl)-1-(cyclopentyl)-1H-indol-3-yl](oxo)acetic acid] | 46% | – | –
O=C(O)C(=O)c1cn(CC2CCC2)c2ccc(-c3cccc(C(F)(F)F)c3)cc12 [Example 55, [5-(3-trifluoromethylphenyl)-1-(cyclobutylmethyl)-1H-indol-3-yl](oxo)acetic acid] | 51% | – | –
CC1CCC(n2cc(C(=O)C(=O)O)c3cc(-c4cccc(C(F)(F)F)c4)ccc32)C1 (centres unmarked) [Example 56, [5-(3-trifluoromethylphenyl)-1-(3-methylcyclopentyl)-1H-indol-3-yl](oxo)acetic acid] | 54% | – | –
O=C(O)C(=O)c1cn(CC2CCCCC2)c2ccc(-c3cccc(C(F)(F)F)c3)cc12 [Example 57, [5-(3-trifluoromethylphenyl)-1-(cyclohexylmethyl)-1H-indol-3-yl](oxo)acetic acid] | 57% | – | –
O=C(O)C(=O)c1cn(CCCC2CCCC2)c2ccc(-c3cccc(C(F)(F)F)c3)cc12 [Example 58, [5-(3-trifluoromethylphenyl)-1-(cyclopentylpropyl)-1H-indol-3-yl](oxo)acetic acid] | 61% | – | –
COc1ccc(-c2ccc3c(c2)c(C(=O)C(=O)O)cn3CC2CCCCC2)cc1 [Example 59, [5-(4-methoxyphenyl)-1-(cyclohexylmethyl)-1H-indol-3-yl](oxo)acetic acid] | 58% | – | –
Cn1cc(C(=O)O)c2ccc(-c3ccc(C(F)(F)F)cc3)cc21 [Example 60, 1-Methyl-6-(4-trifluoromethyl-phenyl)-1H-indole-3-carboxylic acid] | 39% | 237 to 239 °C (dec.) | –
Cn1cc(C(=O)O)c2ccc(-c3ccc(C(C)(C)C)cc3)cc21 [Example 61, 6-(4-tert-Butyl-phenyl)-1-methyl-1H-indole-3-carboxylic acid] | 28% | 236 to 238 °C (dec.) | –
Cn1cc(CC(=O)O)c2cc(-c3ccc(C(F)(F)F)cc3)ccc21 [Example 63, [1-Methyl-5-(4-trifluoromethyl-phenyl)-1H-indol-3-yl]-acetic acid] | – | 167 to 168 °C | –
Cc1cccc(-c2ccc3c(c2)c(CC(=O)O)cn3Cc2ccc(C(C)(C)C)cc2)c1 [Example 64, 2-[1-[4-(tert-Butyl)benzyl]-5-(3-methylphenyl)-1H-indol-3-yl]-acetic acid] | – | 91 to 92 °C | –
Cc1ccc(Cn2cc(CC(=O)O)c3cc(-c4ccc(OC(F)(F)F)cc4)ccc32)cc1 [Example 65, {1-(4-Methylbenzyl)-5-[4-(trifluoromethoxy)phenyl]-1H-indol-3-yl}acetic acid] | – | 62 to 63 °C | –
[5-(3-chlorophenyl)-1-(3-methylcyclopropyl)-1H-indol-3-yl](oxo)acetic acid [Example 47] | – | – | 51%
